For this assay, the system named is pruritus and skin lesions associated with allergic dermatitis in dogs. Description: Control of pruritus and skin lesions associated with allergic dermatitis in dogs (four-arm, blinded, randomized, placebo-controlled study). The class given is in vivo. As to conditions: for Treatment success LSMean (response rate): oral tablets (Form II) once daily, success = 2 unit or more reduction from baseline on 10-unit owner-assessed pruritus VAS in at least 5 of first 7 treatment days, generalized linear mixed model. The procedure:
Control of Pruritus and Skin Lesions Associated with Allergic Dermatitis in Dogs
This study evaluated 2-(3-(4-(7H-pyrrolo[2,3-d]pyrimidin-4-yl)-1H-pyrazol-1-yl)-1-(cyclopropylsulfonyl)azetidin-3-yl)acetonitrile for control of pruritus and skin lesions associated with allergic dermatitis in dogs.
Oral tablets were prepared containing Form II 2-(3-(4-(7H-pyrrolo[2,3-d]pyrimidin-4-yl)-1H-pyrazol-1-yl)-1-(cyclopropylsulfonyl)azetidin-3-yl)acetonitrile, as follows. Oral tablet blends were prepared containing crystal Form II 2-(3-(4-(7H-pyrrolo[2,3-d]pyrimidin-4-yl)-1H-pyrazol-1-yl)-1-(cyclopropylsulfonyl)azetidin-3-yl)acetonitrile, microcrystalline cellulose, pregelantinized starch, dicalcium phosphate dehydrate, oxide pigment, and magnesium stearate. The tablet blends were pressed giving tablet cores containing 2.4 mg, 3.6 mg, 5.4 mg, and 16 mg of crystal Form II 2-(3-(4-(7H-pyrrolo[2,3-d]pyrimidin-4-yl)-1H-pyrazol-1-yl)-1-(cyclopropylsulfonyl)azetidin-3-yl)acetonitrile, as well as a placebo core. The tablet cores were coated with a mixture containing water and Opadry 20A150011 Red, thereby giving the final oral tablets for the study.
A four-arm, blinded, randomized, placebo-controlled study was conducted to assess the efficacy of daily administration of 2-(3-(4-(7H-pyrrolo[2,3-d]pyrimidin-4-yl)-1H-pyrazol-1-yl)-1-(cyclopropylsulfonyl)azetidin-3-yl)acetonitrile for control of pruritus and skin lesions associated with allergic dermatitis in dogs. Subjects were randomized to one of the following treatment arms: API-containing Tablets, 0.25-0.40 mg/kg Body Weight; API-containing Tablets, 0.40-0.60 mg/kg Body Weight; API-containing Tablets, 0.60-0.80 mg/kg Body Weight; and Placebo Tablets, 0.0 mg/kg Body Weight.
Dogs enrolled in the study received once daily treatment for approximately 28 days. Baseline data (clinical history, concomitant therapies, body weight, physical examinations and assessments of pruritus and atopic dermatitis) were collected for each dog at enrollment (Day 0). Additional health assessments, physical examinations, body weight measurements, assessments of pruritus and atopic dermatitis, and collection of blood samples for hematology, serum chemistry and pharmacokinetic (PK) analysis occurred consistent with standard testing protocols.
The primary effectiveness variable was treatment success. A treatment success was defined as a 2 unit or more reduction from baseline on the 10-unit owner-assessed pruritus Visual-Analog Scale (VAS) in at least 70% of the first 7 treatment days (i.e., in at least 5 of the first 7 treatment days). Dogs withdrawn from the study within the first 7 days of treatment due to a perceived lack of effectiveness were considered treatment failures.
Random effects were fit for site and site treatment with a variance component covariance structure and a compound symmetry covariance structure was fit for individual dogs.

Take `N#CCC1(n2cc(-c3ncnc4[nH]ccc34)cn2)CN(S(=O)(=O)C2CC2)C1` [2-(3-(4-(7H-pyrrolo[2,3-d]pyrimidin-4-yl)-1H-pyrazol-1-yl)-1-(cyclopropylsulfonyl)azetidin-3-yl)acetonitrile]: the “Treatment success LSMean (response rate)” value is 0.4640 (0.25-0.40 mg/kg) and 0.5590 (0.40-0.60 mg/kg). The “primary endpoint for treatment success” value (highest dose group 0.6-0.8 mg/kg once daily, minimum effective dose = success in at least 50% of the dogs) is reported as “achieved the primary endpoint for treatment success”. In addition, the “estimated marginal mean response rate compared with placebo rate” value by setting is: (low dose (0.24-0.4 mg/kg) once daily) “higher than the placebo rate”; (medium dose (0.4-0.6 mg/kg) once daily) “higher than the placebo rate”. Also, the “improvement in lesion scores” value (once daily 0.6-0.8 mg/kg, at day 28) is “significant improvement in lesion scores”. For the same compound, the improvements in pruritus entry (once daily dosing with 0.6-0.8 mg/kg, from first dose) is “significant improvements in pruritus from first dose”.

The values above are taken from patent US12234239B2, “Crystalline forms of 2-(3-(4-(7H-pyrrolo[2,3-d]pyrimidin-4-yl)-1H-pyrazol-1-yl)-1-(cyclopropylsulfonyl)azetidin-3-yl)acetonitrile” (Elanco US, Inc., priority 2019, dated 2025).
